The subject of assay [1] is avidin-expressing and non-expressing tumor cells. To be noted: expected outcome; LD50 against expressing vs. non-expressing cells. An excerpt: The LD50 against avidin-expressing and non-expressing tumor cells of each will be evaluated, in vitro. The maximum tolerated dose and anti-tumor efficacy of each will also be evaluated in PCa models. […] Upon necropsy, tumor xenografts will be pathologically analyzed to evaluate cell killing. […] Tumor size will be measured with calipers, or with BLI in the case of g- or fLuc-expressing cells.

Assay [2] relates to tumors and metastases. The conditions noted are these: prior studies, adenovirus-based oncolytic gene delivery, nude mice; cited from earlier work.

In the case of ^90Y-CHX-A-DTPA-biotin [^90Y conjugate], in assay [1], the “specificity of cell killing to avidin expressing cells” value is “less specific to avidin expressing cells”. As to “^213Bi-CHX-A-DTPA-biotin [^213Bi conjugate]”, the “specificity of cell killing to avidin expressing cells” value in assay [1] is given as “highly specific to expressing cells”.

B1: MDA-7/IL-24: melanoma differentiation associated gene-7/Interleukin-24, immunomodulatory cytokine, delivered by adenovirus (protein, UniProt Q13007 52-206, looked up)
Interleukin-24: QEFHFGPCQVKGVVPQKLWEAFWAVKDTMQAQDNITSARLLQQEVLQNVSDAESCYLVHTLLEFYLKTVFKNYHNRTVEVRTLKSFSTLANNFVLIVSQLQPSQENEMFSIRDSAHRRFLLFRRAFKQLDVEAALTKALGEVDILLTWMQKFYKL
modifications: adenovirus-delivered
notes: melanoma differentiation associated gene-7/Interleukin-24, immunomodulatory cytokine, delivered by adenovirus
For B1, in assay [2], the “effect on tumors and metastases” value is “complete eradication of tumors and metastases”.

The record behind these values is patent US9994865B2, “PEG-Prom mediated surface expression of avidin/streptavidin” (The Johns Hopkins University, priority 2013, dated 2018).
